The results in this text go back to patent publication US10889573B2, “Anthelmintic quinoline-3-carboxamide derivatives” (Bayer Animal Health GMBH, priority 2016, dated 2021).

One series deals with Cooperia curticei. The conditions noted are these: Cooperia curticei, 120 h, read-out: activity (larval mortality).
For series [1], the system named is Dirofilaria immitis microfilariae. Nature of the series: In vitro assay 3: Dirofilaria immitis microfilariae (DIROIM L1), motility. To be noted: 72 h, read-out: EC50 (reduction of motility), 72 h incubation.
The target of the next series is C. elegans Slo-1a (Caenorhabditis elegans, UniProt Q95V25). The conditions noted are these: pE50 (negative decadic logarithm of EC50), CHO cells expressing C. elegans Slo-1a, voltage sensitive dye.
Series [2] in a line: log P by HPLC on reversed phase columns (Method L0).
Description: Measurement of log P values was performed according to EEC directive 79/831 Annex V.A8 by HPLC (High Performance Liquid Chromatography) on reversed phase columns with the following methods: • ^[a] log P value is determined by measurement of LC-UV, in an acidic range, with 0.1% formic acid in water and acetonitrile as eluent (linear gradient from 10% acetonitrile to 95% acetonitrile). • ^[b] log P value is determined by measurement of LC-UV, in a neutral range, with 0.001 molar ammonium acetate solution in water and acetonitrile as eluent (linear gradient from 10% acetonitrile to 95% acetonitrile).
Calibration was done with straight-chain alkan-2-ones (with 3 to 16 carbon atoms) with known log P values (measurement of log P values using retention times with linear interpolation between successive alkanones).
Series [3] has as its system Nippostrongylus brasiliensis. Nature of the series: In vitro assay 2: Nippostrongylus brasiliensis (NIPOBR), acetylcholine esterase readout. The conditions noted are these: read-out: activity (reduction of AChE compared to negative control); for inhibition at 1 µg/mL: 1 μg/ml; for inhibition at 10 µg/mL: 10 μg/ml. The procedure, abridged:
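Readout was acetylcholine esterase activity released into the medium, compared with negative control, after exposing adult worms to compounds at final 10 ppm (10 μg/ml) or 1 ppm (1 μg/ml). Worms were first washed in antibiotic/amphotericin B-containing saline; compounds were dissolved in DMSO.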

A further series deals with Haemonchus contortus. The conditions noted are these: 120 h, read-out: activity (larval mortality).
Series [4] deals with Dirofilaria immitis third-stage larvae. The series is described as follows: In vitro assay 4: Dirofilaria immitis (DIROIM L4), motility. The conditions noted are these: 72 h, read-out: EC50 (reduction of motility).
The subject of series [5] is Litomosoides sigmodontis third-stage larvae. The conditions noted are these: 72 h, read-out: EC50 (reduction of motility).
Description: In Vitro Assay 5: Litomosoides sigmodontis (LTMOSI L3)
10 Litomosoides sigmodontis third-stage larvae, which were freshly isolated from the pleural cavity of an infected rodent, were added to wells of a microtitre plate containing a nutrient medium and the test compound in DMSO. Compounds were tested in concentration-response assay in duplicate. Larvae exposed to DMSO and no test compounds were used as negative controls. Larvae were evaluated after 72 h of incubation with the compound. Efficacy was determined as the reduction of motility in comparison to the negative control. Based on the evaluation of a wide concentration range, concentration-response curves as well as EC50-values were calculated.

C. elegans Slo-1a, sequence (Q95V25 whole entry): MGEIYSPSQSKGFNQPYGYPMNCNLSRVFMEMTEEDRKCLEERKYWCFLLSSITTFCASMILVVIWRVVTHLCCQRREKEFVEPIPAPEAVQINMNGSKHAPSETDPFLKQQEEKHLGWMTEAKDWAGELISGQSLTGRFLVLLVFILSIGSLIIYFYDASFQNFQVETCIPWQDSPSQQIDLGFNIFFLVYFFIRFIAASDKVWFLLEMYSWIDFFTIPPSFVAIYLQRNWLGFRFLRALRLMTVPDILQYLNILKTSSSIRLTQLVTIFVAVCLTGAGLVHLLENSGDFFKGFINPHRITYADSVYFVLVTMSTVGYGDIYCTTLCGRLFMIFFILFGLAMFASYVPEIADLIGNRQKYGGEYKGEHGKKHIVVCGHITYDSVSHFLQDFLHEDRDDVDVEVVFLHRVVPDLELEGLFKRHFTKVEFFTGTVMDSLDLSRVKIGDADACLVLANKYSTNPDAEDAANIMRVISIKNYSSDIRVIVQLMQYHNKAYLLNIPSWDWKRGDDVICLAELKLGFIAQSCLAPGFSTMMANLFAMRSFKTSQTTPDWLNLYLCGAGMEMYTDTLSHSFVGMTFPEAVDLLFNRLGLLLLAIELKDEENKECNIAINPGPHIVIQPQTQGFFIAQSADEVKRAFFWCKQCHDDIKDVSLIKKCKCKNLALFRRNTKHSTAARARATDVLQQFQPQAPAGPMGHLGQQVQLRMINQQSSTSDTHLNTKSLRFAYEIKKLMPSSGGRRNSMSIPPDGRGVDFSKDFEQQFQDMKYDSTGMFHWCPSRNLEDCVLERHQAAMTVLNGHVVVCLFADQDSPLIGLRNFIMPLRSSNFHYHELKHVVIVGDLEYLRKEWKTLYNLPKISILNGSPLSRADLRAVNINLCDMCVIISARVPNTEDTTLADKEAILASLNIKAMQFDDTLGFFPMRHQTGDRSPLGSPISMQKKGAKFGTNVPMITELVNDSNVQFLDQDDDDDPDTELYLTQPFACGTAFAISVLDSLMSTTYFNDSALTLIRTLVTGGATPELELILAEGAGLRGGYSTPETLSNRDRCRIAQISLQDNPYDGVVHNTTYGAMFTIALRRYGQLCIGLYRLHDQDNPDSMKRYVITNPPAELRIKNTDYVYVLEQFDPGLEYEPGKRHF
Description for C. elegans Slo-1a: In Vitro Assay 1: C. elegans Slo-1a—Action at a Recombinant C. elegans Cell Line
Cells were cultured at 37° C. and 5% CO2 in MEMalpha with Gutamax I (Invitrogen, Nr.: 32571), supplemented with 10% (v/v) heat inactivated fetal bovine serum (Invitrogen, Nr.: 10500), G418 (1 mg/ml, Invitrogen, Nr.: 10131). Cells were detached using Accutase (Sigma, Nr.: A6964).
Membrane Potential Measurements
Laboratory compound testing was performed on 384-well microtiter plates (MTPs, Greiner, Nr.: 781092). 8000 cells/well were plated onto 384-well MTPs and cultured for 20 to 24 hours at 37° C. and 5% CO2. After removal of the cell culture medium, the cells were washed once with tyrode (150 mM NaCl, 0.3 mM KCl, 2 mM CaCl2, 1 mM MgCl2, 0.8 mM NaH2PO4, 5 mM Glucose, 28 mM Hepes, pH 7.4) and then loaded with the voltage sensitive dye of the Membrane Potential Assay Kit diluted in tyrode for 1 h at room temperature.
After starting the measurement of fluorescence using a FLIPR Tetra (Molecular Devices, Exc. 510-545 nm, Emm. 565-625 nm), test compounds were added followed by the addition of KCl tyrode (final assay concentration: 70 mM KCl, 2 mM CaCl2, 1 mM MgCl2, 0.8 mM NaH2PO4, 5 mM Glucose, 28 mM Hepes, pH 7.4, including the voltage sensitive dye). The measurement was completed after 7 minutes.
The data were evaluated by using the ActivityBase XLfit software (IDBS) for curve fitting and calculation of the half-maximal effective concentration (EC50) and are reported as negative decadic logarithm (pE50).
Description for Cooperia curticei: In Vitro Assay 6: Cooperia curticei (COOPCU L3)
Solvent: dimethyl sulfoxide
Approximately 40 nematode larvae (Cooperia curticei) are transferred into a test tube containing the compound solution.
After 5 days percentage of larval mortality is recorded. 100% efficacy means all larvae are killed; 0% efficacy means no larvae are killed.
Description for Haemonchus contortus: In Vitro Assay 7: Haemonchus contortus (HAEMCO L3)
Solvent: dimethyl sulfoxide
Approximately 40 larvae of the red stomach worm (Haemonchus contortus) are transferred into a test tube containing compound solution.
After 5 days the percentage of larval mortality is recorded. 100% efficacy means all larvae are killed, 0% efficacy means no larvae are killed.

For orientation: mortality means the share of the test organisms that died. A word on the EC50: it is the concentration giving half of the maximal effect. The chromatographic logP is a lipophilicity value derived from retention on a column. On to `O=C(N[C@H]1CCOc2ccccc21)c1cnc2c(-c3cc(Cl)cc(Cl)c3)cccc2c1N1CCC1` [Example 135, 4-(azetidin-1-yl)-8-(3,5-dichlorophenyl)-N-[(4S)-3,4-dihydro-2H-chromen-4-yl]quinoline-3-carboxamide], for which the mortality at 20 ppm in the series with Cooperia curticei came out at 80%; in the series on Haemonchus contortus, 100%. Further, the EC50 in series [1] was < 1 mg/L; at C. elegans Slo-1a, < 3.16 nM. In series [2], this compound showed a chromatographic logP of 1.9. The inhibition at 1 µg/mL in series [3] is > 80%. In addition, the inhibition at 10 µg/mL in series [3] was > 80%. For the same compound, the mortality at 4 ppm in the series with Haemonchus contortus was 90%.
Regarding `COc1c(F)ccc(-c2cccc3c(N4CCOCC4)c(C(=O)N[C@H]4CCOc5ccccc54)cnc23)c1F` [Example 53], the concentration for a half-maximal effect (EC50) was < 0.1 mg/L in series [4], < 0.1 mg/L in series [1], < 3.16 nM at C. elegans Slo-1a and < 0.1 mg/L in series [5]. The values for the mortality at 4 ppm with Cooperia curticei and with Haemonchus contortus were 100% and 80%, respectively. Further, the mortality at 20 ppm in the series on Cooperia curticei and with Haemonchus contortus was 100% each time. The inhibition at 1 µg/mL in series [3] is > 80%. For the same compound, the inhibition at 10 µg/mL in series [3] is > 80%.
Turning to `O=C(N[C@H]1CCOc2ccccc21)c1cnc2c(-c3cc(F)cc(Cl)c3)c(F)ccc2c1N1CCOCC1` [Example 143], the EC50 in series [4] was < 0.1 mg/L; in series [1], < 0.1 mg/L; on C. elegans Slo-1a, < 3.16 nM; in series [5], < 0.1 mg/L. Besides, the mortality at 4 ppm with Cooperia curticei and with Haemonchus contortus was 100% each time. Also, the mortality at 20 ppm with Cooperia curticei and with Haemonchus contortus was 100% throughout. Besides, in series [3], the inhibition at 1 µg/mL is > 80%. Also, the inhibition at 10 µg/mL in series [3] is > 80%.
For the compound `CCOc1c(C(=O)N[C@H]2CCOc3ccccc32)cnc2c(-c3cc(Cl)cc(Cl)c3)cccc12` [Example 341], the EC50 is < 0.1 mg/L in series [4], < 0.1 mg/L in series [1], < 3.16 nM on C. elegans Slo-1a and < 0.1 mg/L in series [5]. Moreover, the mortality at 4 ppm in the series on Cooperia curticei turned out to be 90%; in the series on Haemonchus contortus it was 80%. Also, the results for the mortality at 20 ppm in the series with Cooperia curticei and in the series on Haemonchus contortus were 100% and 80%, respectively. The inhibition at 1 µg/mL in series [3] was > 80%. Moreover, the inhibition at 10 µg/mL in series [3] was > 80%.
`CN(c1c(C(=O)N[C@H]2CCOc3ccccc32)cnc2c(-c3cccc(Cl)c3Cl)cccc12)C1COC1` [Example 331, 8-(2,3-dichlorophenyl)-N-[(4S)-3,4-dihydro-2H-chromen-4-yl]-4-[methyl(oxetan-3-yl)amino]-quinoline-3-carboxamide]: the EC50 in series [4] is < 0.1 mg/L; in series [1], < 0.1 mg/L; on C. elegans Slo-1a, < 3.16 nM. The mortality at 20 ppm in the series on Cooperia curticei was 90%; in the series with Haemonchus contortus, 100%. Further, in series [2], the chromatographic logP is 3.14. The inhibition at 1 µg/mL in series [3] is > 80%.
For the compound `CN(CC(=O)O)c1c(C(=O)N[C@H]2CCOc3ccccc32)cnc2c(-c3cc(Cl)cc(Cl)c3)cccc12` [Example 150, N-{8-(3,5-dichlorophenyl)-3-[(4S)-3,4-dihydro-2H-chromen-4-ylcarbamoyl]quinolin-4-yl}-N-methylglycine], the EC50 in series [4] is < 1 mg/L; in series [1] it was < 0.1 mg/L; on C. elegans Slo-1a, 3.16 to 31.6 nM. For the same compound, the mortality at 20 ppm in the series on Cooperia curticei turned out to be 100%; in the series with Haemonchus contortus, 90%. This compound had a chromatographic logP in series [2] of 3.1. For the same compound, the inhibition at 1 µg/mL in series [3] is > 80%. The mortality at 4 ppm in the series on Haemonchus contortus was determined as 80%.
As for `CN(C)c1c(C(=O)N[C@H]2CCOc3ccccc32)cnc2c(-c3cc(Cl)ccc3F)cccc12` [Example 37], the EC50 is < 0.1 mg/L in series [4], < 0.1 mg/L in series [1], < 3.16 nM on C. elegans Slo-1a and < 0.1 mg/L in series [5]. Further, the mortality at 4 ppm in the series with Cooperia curticei and in the series on Haemonchus contortus was 100% throughout. Besides, the mortality at 20 ppm with Cooperia curticei and in the series on Haemonchus contortus was 100% each time. Moreover, the inhibition at 1 µg/mL in series [3] was > 80%. In series [3], the inhibition at 10 µg/mL is > 80%.
As for `CCc1cc(Cl)cc(-c2cccc3c(CC)c(C(=O)N[C@H]4CCOc5ccccc54)cnc23)c1` [Example 351, 8-(3-chloro-5-ethylphenyl)-N-[(4S)-3,4-dihydro-2H-chromen-4-yl]-4-ethylquinoline-3-carboxamide], the results for the EC50 (in series [4]; in series [1]; at C. elegans Slo-1a) were < 0.1 mg/L, < 0.1 mg/L and < 3.16 nM, respectively. In addition, the chromatographic logP in series [2] was 5.1.
Regarding `CN(C)c1c(C(=O)N[C@H]2CCOc3ccccc32)cnc2c(-c3cccc(Cl)c3)c(F)ccc12` [Example 141, 8-(3-chlorophenyl)-N-[(4S)-3,4-dihydro-2H-chromen-4-yl]-4-(dimethyl-amino)-7-fluoroquinoline-3-carboxamide], the EC50 in series [4] was < 0.1 mg/L; in series [1], < 0.1 mg/L; on C. elegans Slo-1a, < 3.16 nM; in series [5], < 0.1 mg/L. In addition, in series [3], the inhibition at 10 µg/mL was > 80%.
Turning to `O=C(N[C@H]1CCOc2ccccc21)c1cnc2c(-c3cc(Cl)cc(Cl)c3)cccc2c1-c1ccncc1` [Example 396], the EC50 in series [4] is < 0.1 mg/L; in series [1], < 0.1 mg/L; on C. elegans Slo-1a, < 3.16 nM; in series [5], < 0.1 mg/L. Besides, the mortality at 4 ppm with Cooperia curticei came out at 100%; with Haemonchus contortus it was 90%. For the same compound, the mortality at 20 ppm in the series on Cooperia curticei and in the series on Haemonchus contortus was 100% throughout. In series [3], the inhibition at 1 µg/mL was > 80%.
With `CNc1c(C(=O)N[C@H]2CCOc3ccccc32)cnc2c(-c3cc(Cl)cc(Cl)c3)cccc12` [Example 24], the EC50 in series [4] was < 0.1 mg/L; in series [1], < 0.1 mg/L; on C. elegans Slo-1a, < 3.16 nM; in series [5] it was < 0.1 mg/L. Further, the mortality at 4 ppm in the series on Cooperia curticei and in the series with Haemonchus contortus was 100% each time. Besides, the mortality at 20 ppm with Cooperia curticei and in the series on Haemonchus contortus was 100% throughout. In addition, in series [3], the inhibition at 1 µg/mL was > 80%. In series [3], the inhibition at 10 µg/mL was > 80%.
On to `O=C(N[C@H]1CCOc2ccccc21)c1cnc2c(-c3cccc(Cl)c3Cl)cccc2c1N1CCOCC1` [Example 52, 8-(2,3-dichlorophenyl)-N-[(4S)-3,4-dihydro-2H-chromen-4-yl]-4-(morpholin-4-yl)quinoline-3-carboxamide], for which the EC50 in series [4] is < 0.1 mg/L; in series [1], < 0.1 mg/L; on C. elegans Slo-1a it was < 3.16 nM; in series [5] it was < 0.1 mg/L. Also, the mortality at 4 ppm in the series on Cooperia curticei and with Haemonchus contortus was 100% each time. Besides, the mortality at 20 ppm in the series on Cooperia curticei and in the series with Haemonchus contortus was 100% in each case. In series [3], the inhibition at 1 µg/mL is > 80%. Further, the inhibition at 10 µg/mL in series [3] is > 80%.
Consider `O=C(N[C@H]1CCc2ccccc21)c1cnc2c(-c3cc(Cl)cc(Cl)c3)cccc2c1Cl` [Example 3, 4-chloro-8-(3,5-dichlorophenyl)-N-[(1S)-2,3-dihydro-1H-inden-1-yl]quinoline-3-carboxamide], for which the EC50 in series [4] was < 1 mg/L; in series [1], < 1 mg/L; at C. elegans Slo-1a it was 3.16 to 31.6 nM; in series [5], < 1 mg/L.
With `Cc1cc(-c2cc(Cl)cc(Cl)c2)c2ncc(C(=O)N[C@H]3CCOc4ccccc43)c(N(C)C)c2c1` [Example 12], the EC50 in series [4] is < 0.1 mg/L; in series [1], < 0.1 mg/L; on C. elegans Slo-1a, < 3.16 nM; in series [5], < 0.1 mg/L. For the same compound, the inhibition at 1 µg/mL in series [3] was > 80%. The inhibition at 10 µg/mL in series [3] is > 80%. Further, the mortality at 20 ppm in the series on Haemonchus contortus worked out at 80%.
Consider `CN(C)c1c(C(=O)N[C@H]2CCOc3ccccc32)cnc2c(-c3cccc4[nH]ccc34)cccc12` [Example 73], for which the EC50 in series [4] is < 0.1 mg/L; in series [1], < 0.1 mg/L; at C. elegans Slo-1a it was 3.16 to 31.6 nM; in series [5] it was < 1 mg/L. Also, the inhibition at 1 µg/mL in series [3] was > 80%. The inhibition at 10 µg/mL in series [3] was > 80%.
On to `COc1c(C(=O)N[C@H]2CCOc3ccccc32)cnc2c(-c3cc(Cl)cc(Cl)c3)cccc12` [Example 373, 8-(3,5-dichlorophenyl)-N-[(4S)-3,4-dihydro-2H-chromen-4-yl]-4-methoxyquinoline-3-carboxamide], for which the figures for the EC50 (in series [4]; on C. elegans Slo-1a; in series [5]) were < 1 mg/L, < 3.16 nM and < 1 mg/L, respectively. Besides, the mortality at 4 ppm with Cooperia curticei and with Haemonchus contortus was 100% each time. The mortality at 20 ppm with Cooperia curticei and in the series on Haemonchus contortus was 100% throughout. Also, the inhibition at 1 µg/mL in series [3] was > 80%. Further, the inhibition at 10 µg/mL in series [3] was > 80%.
As for `CCOc1c(C(=O)N[C@H]2CCc3ccccc32)cnc2c(-c3cc(Cl)cc(Cl)c3)cccc12` [Example 134, 8-(3,5-dichlorophenyl)-N-[(1S)-2,3-dihydro-1H-inden-1-yl]-4-ethoxyquinoline-3-carboxamide], the EC50 in series [4], in series [1] and in series [5] was < 0.1 mg/L each time. Also, the mortality at 4 ppm in the series on Cooperia curticei and with Haemonchus contortus was 100% throughout. The mortality at 20 ppm in the series with Cooperia curticei and in the series on Haemonchus contortus was 100% throughout. Besides, the inhibition at 1 µg/mL in series [3] was > 80%. The inhibition at 10 µg/mL in series [3] was > 80%.
